Assay results reported in patent publication US10066204B2, “Chemically labile peptide-presenting surfaces for cellular self-assembly” (Wisconsin Alumni Research Foundation, priority 2013, dated 2018).
Where two headings read alike, the source gives them in different places.

Assays:
hESC (H1) = conditions: for cell adhesion of the hESC monolayer by adhesion ligand on the array spot: FIG. 2B/2C
Experimental: Gold slides were placed into a 150 mm glass Petri dish, covered with EtOH and sonicated for ˜1 minute using an ultrasonic bath (Bransonic 1510, Branson, Danbury, Conn.). Sonicated gold chips were then rinsed with EtOH and blown dry with N2. […] For spot shape, elastomeric stencils with arrays in the shape of circles, ovals, and oval cross were placed on a bare gold surface to form an array of wells having these shapes on the gold substrate. Wells were then filled with 1 mM ethanolic alkanethiolate solution and incubated for 10 minutes in a chamber containing a laboratory wipe soaked in ethanol to prevent evaporation during local SAM formation. Alkanethiolate solutions were then aspirated and wells were rinsed with DIUF H2O. Carboxylate groups were then converted to active ester groups by adding a solution of 100 mM NHS and 250 mM EDC in DIUF H2O pH 5.5 to wells and incubated for 10 minutes. After an additional rinse with DIUF H2O, 300 μM solutions of […] (SEQ ID NO: 5; commercially available from GenScript, Piscataway, N.J.) or […] (SEQ ID NO: 6; commercially available from GenScript, Piscataway, N.J.) in PBS and pH 7.4 were added to each well and incubated for 1 hour in a humidity controlled chamber to covalently couple peptides to each array spot. After a final rinse in DIUF H2O, regions surrounding array spots were backfilled with HS—C11-EG3-OH. This was accomplished by submerging the gold substrate and attached elastomeric stencil in an aqueous 0.1 mM HS—C11-EG3-OH solution (pH 2.0), removing the stencil, and incubating for 10 minutes. Following backfilling, the array was rinsed with 0.1 wt % SDS in DIUF H2O, DIUF H2O, and EtOH and then dried under a stream of N2. Arrays were stored in sterile DIUF H2O at 4° C. and used within 24 hours.
Pluripotent stem cells were seeded on arrays at a density of 10^5 cells/cm^2. […] Colonies that spontaneously detached from SAM spots were also harvested. Colonies were analyzed for Oct 3/4 and Nanog expression by immunofluorescence using DAPI to stain nuclei.
The concentration of the integrin adhesion peptides […] (SEQ ID NO: 1) and cyclic RGD (SEQ ID NO: 4) on the array spot was varied between 2% and 10% by the fraction of COOH groups functionalized with peptides present at the spot among background OH functionalities.
After initial attachment of the cells to the glycosaminoglycan binding peptide […]
Specifically, a 1:1 functionalization with cyclic RGD (SEQ ID NO: 4) and […]

[1] = tested on: hESC monolayers (H1 hESC line); conditions: for effect of soluble peptide on kinetics of aggregate assembly: 0.1 mM soluble peptide in culture media; for change in hESC colony projected area (indicative of aggregate self-assembly): both 5% COOH and 0.5% COOH SAMs
Experimental: Gold slides were placed into a 150 mm glass Petri dish, covered with EtOH and sonicated for 2 minutes using an ultrasonic bath (Bransonic 1510, Branson, Danbury, Conn.). Sonicated gold chips were then rinsed with EtOH and blown dry with N2. […] Wells were then filled with 1 mM ethanolic alkanethiolate solution and incubated for approximately 10 minutes at room temperature in a chamber containing a laboratory wipe soaked in ethanol to prevent evaporation during local SAM formation. Alkanethiolate solutions were then aspirated and wells were rinsed with DIUF H2O. Carboxylate groups were then converted to active ester groups by adding a solution of 100 mM NHS and 250 mM EDC (in pH 5.5 DIUF H2O) to wells and incubating for 15 minutes. After an additional rinse with DIUF H2O, 300 μM solutions of peptide(s) in pH 7.4 PBS were added to each well and incubated for 1 hour in a humidity-controlled chamber at room temperature to covalently couple peptides to each array spot. After a final rinse in DIUF H2O, regions surrounding array spots were backfilled with HS—C11-EG3-OH. This was accomplished by submerging the gold substrate and attached elastomeric stencil in an aqueous 0.1 mM HS—C11-EG3-OH solution (pH 2.0), removing the stencil, and incubating for 10 minutes. Following backfilling, the array was rinsed with 0.1 wt % SDS in DIUF H2O, DIUF H2O, and EtOH, and then dried under a stream of N2. Arrays were stored away from light in diH2O at room temperature and used within 24 hours.
Pluripotent stem cells (H1 hESC line) were seeded on arrays at a density of approximately 2×10^5 cells/cm^2 to achieve confluent monolayers within 4 hours.
(§1) Time lapse images were analyzed using edge detection software to track projected area of colonies with respect to initial colony area over time. A t50 of self-assembly was defined as the length of time required for a given patterned cell monolayer to reach 50% of its original 2D projected area, as assessed by automated edge detection. This metric is used throughout this specification to describe differences in the kinetics of aggregate self-assembly between different cell types and in different conditions.

hESC monolayers [2] = conditions: 5% SAMs
Experimental: Colonies were analyzed for Oct4 and Nanog expression by immunofluorescence using DAPI to stain nuclei.
Self-assembled EBs formed from largely pluripotent 2D hESC populations. hESC monolayers cultured on array spots were stained for pluripotency markers Oct4 and Nanog, as well as DAPI to identify cell nuclei. […] Quantification of positive staining for Oct4 and Nanog, relative to number of cells as quantified by DAPI staining, is shown in FIG. 25B. […] Nanog was expressed by 89% and 93% of hESCs in monolayers at 4 hours and 24 hours, respectively.

hMSC monolayers = tested on: hMSC monolayers
Experimental: as §1
hMSCs or hDFs were seeded on arrays at a density of ˜1×10^5 cells/cm^2 to achieve confluent monolayers within 4 hours. Cells were cultured on SAMs in αMEM media containing 10% fetal bovine serum (FBS) for 2 hours after seeding. At this time, SAM arrays were rinsed in basal medium to remove nonspecifically adhered cells and replaced in fresh αMEM+10% FBS.
In this Example, the beginning of self-assembly is characterized by the time point at which an evident decrease in projected area of the cell monolayer first occurs. The completion of self-assembly is considered the time point at which no further decreases in monolayer projected area occur, and is marked by the appearance of a plateau in graphical traces of monolayer projected area (see FIG. 28A).

hESC monolayers [3] = conditions: 5% SAMs, circular spots of 1.2 mm diameter
Experimental: Polymer stencils containing arrays of wells were created using soft lithography. Master molds containing arrays of 1.2 mm, 1.8 mm, and 2.4 mm diameter circular posts or oval-shaped or quatrefoil-shaped posts were fabricated from SU-8 (Microchem, Newton, Mass.) spin-coated silicon wafers using conventional photolithography techniques. Polydimethylsiloxane (PDMS) (Sylgard 184, Dow Corning, Midland, Mich.) was prepared by mixing a 10:1 ratio of base:curing agent (w/w) followed by degassing for approximately 45 minutes. The degassed mixture was cast over the mold and cured for 6 hours at 80° C. Following curing, PDMS stencils were removed from molds and cleaned in hexane using overnight Soxhlet extraction.

hESCs (H1 line) = conditions: EBs from 5% SAMs, 24 hours post-assembly

## KRTGQYKL
hESC (H1)
  cell adhesion of the hESC monolayer by adhesion ligand on the array spot: no significant adhesion

## GWGGRGDSP
hESC (H1)
  cell adhesion of the hESC monolayer by adhesion ligand on the array spot: best cell adhesion

## cyclo(RADFDK) [reference compound]
[1]; hESC on 5% cyclo(RGDFDC) SAMs
  effect of soluble peptide on kinetics of aggregate assembly: no evident effect

## cyclo(RGDFDK) [reference compound]
[1]; 5% COOH SAMs
  cellular self-assembly behavior of hESC monolayers: no cellular self-assembly behavior
[1]
  change in hESC colony projected area (indicative of aggregate self-assembly): no such decreases
[1]; over 96 hours
  detachment of hESC monolayers: no observable detachment

## cyclo(RGDFDC)
hESC (H1); 2% COOH fraction compared to 5% COOH, 4 to 48 hours in culture
  hESC cell adhesion as a function of adhesion ligand density: significantly lower cell adhesion
hESC (H1); 10% COOH fraction compared to 5% COOH
  hESC cell adhesion as a function of adhesion ligand density: did not lead to an improved attachment
hESC (H1)
  cell adhesion of the hESC monolayer by adhesion ligand on the array spot: best cell adhesion
[1]; hESC on 5% cyclo(RGDFDC) SAMs
  effect of soluble peptide on kinetics of aggregate assembly: most rapid aggregate assembly
[1]; 5% COOH SAMs
  time of forming three-dimensional cellular aggregates floating in suspension: 72 to 96 h
[1]; […] soluble peptide in culture media, hESC on 5% cyclo(RGDFDC) SAMs
  effect of soluble peptide on kinetics of aggregate assembly versus control: faster aggregate assembly
[1]
  change in hESC colony projected area (indicative of aggregate self-assembly): evident decreases
[1]; hESC, 0.01% peptide SAMs
  t50 of self-assembly: approximately 14 hours
[1]; hESC, 0.5% COOH SAMs
  t50 of self-assembly: approximately 22 hours
[1]; hESC, 5% COOH SAMs
  beginning of the self-assembly process after initial seeding: 40 to 48 h
[1]; hESC, 5% SAMs
  completion of the self-assembly process after initial seeding: ≤ 72 h
[1]; hESC, 5% peptide SAMs
  t50 of self-assembly: approximately 45 hours
hESC monolayers [2]; 4 hours after seeding
  hESCs in monolayers expressing Nanog: 89%
  hESCs in monolayers expressing Oct4: greater than 97%
hESC monolayers [2]; 24 hours after seeding
  hESCs in monolayers expressing Nanog: 93%
  hESCs in monolayers expressing Oct4: 93%
hMSC monolayers
  beginning of self-assembly after initial seeding: ≤ 24 h
  completion of self-assembly after initial seeding: ≤ 36 h
  t50 of self-assembly of hMSCs: approximately 30 hours
hESC monolayers [3]
  time to form self-assembled EBs: ≤ 72 h
hESCs (H1 line)
  Nanog+ cells dissociated from EBs: approximately 91%
  Oct4+ cells dissociated from EBs: approximately 99%

## GWGGRGESP [reference compound]
hESC (H1)
  cell adhesion of the hESC monolayer by adhesion ligand on the array spot: No significant differences

## CGKKQRFRHRNRKG
hESC (H1)
  cell adhesion of the hESC monolayer by adhesion ligand on the array spot: significantly less cell attachment
hESC (H1); array spots presenting the peptide
  time until cells detached after initial attachment: ≤ 12 h
